Test results as given in paper PMC8225008, “Development of Non-Ethoxypropanoic Acid Type Cryptochrome Inhibitors with Circadian Molecular Clock-Enhancing Activity by Bioisosteric Replacement” (Pharmaceuticals, 2021).

Legend:
[1] = In vivo pharmacokinetics in rats after IV or PO administration; parameters: species or system Sprague Dawley (SD) male rats; conditions: male, Sprague Dawley, rat, oral 5 mg/kg, measured as 2d form in plasma
Experimental: For in vivo pharmacokinetic studies, Sprague Dawley (SD) male rats (weighing 270–280 g) were purchased from Orient Bio Inc. (Seongnam, Korea). Experimental protocols involving animal use were carefully reviewed and approved by the Institutional Animal Care and Use Committee at Gachon University. Prior to studies, animals fasted for 18 h, but with free access to water. Compound 5d or 2d was dissolved in a dosing vehicle consisting of PEG400, normal saline, and dimethylsulfoxide in a ratio of 6:3:1 (v/v/v%) to make a 2 mg/mL dosing solution. […]
To determine drug concentration levels in plasma, the Agilent 1290 UHPLC-DAD system with Polar RP column (3 μm, 150 mm × 2 mm ID., Phenomenex) was used for chromatographic separations. […] The total run time was 4.4 min for samples which were monitored at 260 nm. […]
(§1) The EC50 values for luciferase reporter assay were calculated based on a logistic four-parametric equation using the mean values of intrinsic activation (SigmaPlot 10.0; Systat Software Inc., San Jose, CA, USA). The IC50 and t1/2 values for the cytochrome P450 inhibition assay and metabolic stability test were calculated by WinNonlin software (Pharsight, Mountain View, CA, USA). Pharmacokinetic parameters were calculated using non-compartmental analysis (WinNonlin v.8.3; Pharsight, Mountain View, CA, USA). […]

CYP3A = assay: Cytochrome P450 inhibition assay (cocktail method, human liver microsomes), midazolam 1'-hydroxylation; assay type: in vitro ADME; conditions: pooled human liver microsomes, probe midazolam (5 μM)
Experimental: (§2) The inhibitory effects of KS15 and compound 5d on the metabolism of five cytochrome P450 (P450) probe substrates were evaluated using previous methods with slight modifications. The following P450 probe substrates were used: phenacetin (100 μM) for CYP1A2, tolbutamide (100 μM) for CYP2C9, omeprazole (20 μM) for CYP2C19, dextromethorphan (5 μM) for CYP2D6, and midazolam (5 μM) for CYP3A. Incubation mixtures containing pooled human liver microsomes (HLMs, XTreme 200, XenoTech, Lenexa, KS, USA), P450 probe substrates, and KS15 or compound 5d (final concentrations: 0, 0.5, 2, 5, 20, and 50 μM) were preincubated for 5 min at 37 °C. […] After centrifugation at 18,000× g (5 min, 4 °C), supernatant aliquots were analyzed by liquid chromatography-tandem mass spectrometry (LC-MS/MS). […]
(§3) All metabolites and IS were separated on a Kinetex C18 column (100 mm × 2.1 mm, 2.6 μm ID., Phenomenex, Torrance, CA, USA) and analyzed using an LC-MS/MS system (LCMS 8060, Shimadzu, Tokyo, Japan) equipped with an electrospray ionization (ESI) interface. […]
as §1, with “The IC50 and t1/2 values for the cytochrome P450 inhibition assay and metabolic stability test were calculated by WinNonlin software (Pharsight, Mountain View, CA, USA).” left out

CYP2C9 = target: T1, CYP2C9 (Homo sapiens, UniProt P11712); assay: Cytochrome P450 inhibition assay (cocktail method, human liver microsomes), tolbutamide 4-methylhydroxylation; assay type: in vitro ADME
T1 construct: pooled human liver microsomes (HLMs, XTreme 200, XenoTech, Lenexa, KS, USA); tissue XenoTech XTreme 200; host or cells: pooled human liver microsomes
T1 sequence (P11712 whole entry): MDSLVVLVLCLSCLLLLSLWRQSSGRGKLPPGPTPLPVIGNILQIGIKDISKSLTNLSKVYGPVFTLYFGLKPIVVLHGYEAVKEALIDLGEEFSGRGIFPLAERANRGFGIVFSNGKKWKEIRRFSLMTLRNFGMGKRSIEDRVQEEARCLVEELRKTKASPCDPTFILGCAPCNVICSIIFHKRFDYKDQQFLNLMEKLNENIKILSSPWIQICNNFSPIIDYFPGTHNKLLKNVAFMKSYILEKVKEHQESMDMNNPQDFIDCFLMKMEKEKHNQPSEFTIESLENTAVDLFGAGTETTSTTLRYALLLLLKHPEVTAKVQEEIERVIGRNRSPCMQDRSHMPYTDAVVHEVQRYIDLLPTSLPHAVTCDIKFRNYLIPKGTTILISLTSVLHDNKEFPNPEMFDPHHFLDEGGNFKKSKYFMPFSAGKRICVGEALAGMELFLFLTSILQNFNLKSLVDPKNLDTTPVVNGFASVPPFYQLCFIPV
Experimental: as §2, §3
as §1, with “The IC50 and t1/2 values for the cytochrome P450 inhibition assay and metabolic stability test were calculated by WinNonlin software (Pharsight, Mountain View, CA, USA).” left out

| Structure (SMILES) | half-life [1] [h] | AUC ([1]; read-out: AUCinfinite (converted)) [µg·h/mL] | IC50 at 10 min (CYP3A) [µM] | IC50 (CYP2C9) [µM] |
| --- | --- | --- | --- | --- |
| CC(=NOCc1ccc([N+](=O)[O-])cc1)c1cccc(OCC(=O)O)c1 [Compound 2d, 2-(3-(1-(((4-nitrobenzyl)oxy)imino)ethyl)phenoxy)acetic acid] | 6.52 ± 0.793 | 184 |  |  |
| COC(=O)COc1cccc(C(C)=NOCc2ccc([N+](=O)[O-])cc2)c1 [Compound 5d, Methyl 2-(3-(1-(((4-nitrobenzyl)oxy)imino)ethyl)phenoxy)acetate] |  |  | > 50 | > 50 |
